{"source": "paper PMC5842505", "about": "“Allosteric Inhibition of Serotonin 5-HT7 Receptors by Zinc Ions” (Molecular Neurobiology, 2017)", "key": {"[1]": {"target": "T1, human 5-HT7 receptor (Homo sapiens, UniProt P34969)", "T1 sequence (P34969 1-432 limits assumed)": "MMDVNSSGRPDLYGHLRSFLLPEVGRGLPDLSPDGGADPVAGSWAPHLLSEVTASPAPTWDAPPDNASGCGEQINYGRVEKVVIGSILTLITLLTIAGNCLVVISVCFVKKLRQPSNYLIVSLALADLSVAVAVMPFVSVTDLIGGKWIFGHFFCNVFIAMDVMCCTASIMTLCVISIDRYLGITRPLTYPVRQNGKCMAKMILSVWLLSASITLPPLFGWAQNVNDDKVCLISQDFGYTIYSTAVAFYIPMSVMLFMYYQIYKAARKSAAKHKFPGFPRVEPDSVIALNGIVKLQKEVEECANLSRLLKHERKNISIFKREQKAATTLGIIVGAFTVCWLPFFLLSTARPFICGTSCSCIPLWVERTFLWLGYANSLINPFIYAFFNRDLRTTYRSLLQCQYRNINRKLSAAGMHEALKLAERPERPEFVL", "test": "Screen of monovalent and divalent cations on radioligand binding", "conditions": "for decrease in radioligand binding relative to the control: higher cation concentration (5 mM)", "method": "Non-specific binding was defined by the binding obtained in the presence of 10 μM 5-HT. The incubation buffer consisted of 50 mM Tris–HCl (pH 7.7), 4 mM MgCl2, 10 μM pargyline, and 0.1% ascorbic acid. The binding reactions were stopped by filtration through GF/B UniFilter plates using a harvester (PerkinElmer). The plate filters were then dried, and 20 μl of Ultima Gold MV (PerkinElmer) was added. Radioactivity was measured using a MicroBeta TriLux counter (PerkinElmer).\nInitially, different monovalent and divalent cations (Na^+, K^+, Mg^2+, Ca^2+, and Zn^2+) were screened at concentrations of 500 μM and 5 mM to assess whether they had any effects on the 5-HT7 receptor (Fig. 1).\nThe binding of radioligands in the absence of the tested cations is referred to as basal specific binding and was set to 100% (dotted line)"}, "[2]": {"target": "T2, human 5-HT7b receptor (Homo sapiens, UniProt P34969)", "T2 construct": "The full-length human 5-HT7b receptor complementary DNA (cDNA)", "T2 sequence (P34969 1-432 limits assumed)": "as above", "test": "LANCE cAMP functional assay in HEK293 cells expressing the 5-HT7 receptor", "format": "cell-based", "conditions": "for K B: antagonist vs 10 nM 5-CT; for effect on constitutive (unstimulated cAMP) activity: constitutively active 5-HT7 HEK293 cell line", "protocol": "(§1) HEK293 cells stably expressing the human 5-HT7b receptor were grown in Dulbecco’s Modified Eagle’s Medium (DMEM) (Lonza, Basel, Switzerland) supplemented with 10% dialyzed fetal bovine serum (FBS) (Lonza) and 500 μg/ml G418 sulfate (Sigma-Aldrich) at 37 °C in a humidified atmosphere with 5% CO2. For the membrane preparations, the cells were sub-cultured in 150-cm^2 flasks, grown to 90% confluence, washed twice with phosphate-buffered saline (PBS) pre-warmed to 37 °C, and pelleted by centrifugation (200×g for 5 min) in PBS containing 0.1 mM ethylenediaminetetraacetic acid (EDTA) and 1 mM dithiothreitol (DTT). Prior to the membrane preparation, the pellets were frozen at −80 °C. For the functional experiments, the cells were sub-cultured in 75-cm^2 flasks, grown to 90% confluence, washed twice with PBS pre-warmed to 37 °C, and pelleted by centrifugation (180×g) in PBS containing 0.5 mM EDTA. The supernatant was aspirated, and the cell pellet was resuspended in stimulation buffer (1× HBSS, 5 mM HEPES, 0.5 mM IBMX, 0.1% BSA).\nEach compound was tested at eight concentrations ranging from 0.01 nM to 100 μM. The total level of cAMP was measured using the LANCE cAMP detection kit (PerkinElmer) according to the manufacturer’s recommendations. To quantify the cAMP levels, 200 or 1000 (for measuring constitutive activity) cells/well (5 μl) were incubated with compounds (5 μl) for 30 min at room temperature in a 384-well white opaque microtiter plate. After incubation, 10 μl of the working solution (5 μl Eu-cAMP and 5 μl ULight-anti-cAMP) was added to induce cell lysis and terminate the reaction. The assay plate was incubated for 1 h at room temperature. The time-resolved fluorescence resonance energy transfer (TR-FRET) signal was detected using an Infinite M1000 PRO (Tecan, Männedorf, Switzerland) with instrument settings from the LANCE cAMP detection kit manual.\nThe derivation of the Cheng–Prusoff equation was applied for the analysis of antagonist functional inhibition curves"}, "[3]": {"test_system": "HEK293 cells", "conditions": "30-min exposure, MTT and LDH tests", "method": "To estimate potential ZnCl2-induced cell death, a colorimetric method was applied in which the amount of formazan salt that had formed after the conversion of lactate to pyruvate followed by the reduction of tetrazolium salt was proportional to the lactate dehydrogenase (LDH) activity in the sample. All procedures were conducted according to the manufacturer’s protocol (Pierce LDH Cytotoxicity Assay Kit, Thermo Fisher Scientific, Waltham, Massachusetts, USA). In brief, the level of LDH released from damaged cells into the culture medium was measured after a 30-min exposure to different concentrations of ZnCl2 in 96-well plates. Cell-free culture supernatants were collected from each well and incubated with the appropriate substrate mix at RT for 30 min. The intensity of the red color formed in the assay and measured at a wavelength of 490 nm was proportional to the LDH activity and the number of damaged cells. The data were normalized to the activity of LDH released from lysis buffer-treated cells (100%) and expressed as a percent of the total ± SEM from three separate experiments.\nThe yellow tetrazolium 3-(4,5-dimethylthiazolyl-2)-2,5-diphenyltetrazolium bromide (MTT) is reduced by metabolically active cells, by the action of dehydrogenase enzymes, generating NADH and NADPH. The resulting intracellular purple formazan is then solubilized and quantified by spectrophotometry. […]"}, "[4]": {"target": "T1, human 5-HT7 receptor", "test": "Saturation radioligand binding in the absence and presence of Zn2+", "parameters": "The full-length human 5-HT7b receptor complementary DNA (cDNA)", "conditions": "non-linear regression, Eq. 1", "protocol": "as §1\n(§2) Cell pellets were thawed and homogenized in 10 volumes of 50 mM Tris–HCl buffer (pH 7.7) containing 0.1 mM EDTA, using an Ultra Turrax tissue homogenizer. The pellets were centrifuged twice at 35,000×g for 20 min at 4 °C, with 15-min incubation at 37 °C between centrifugations. The pellets were then resuspended in the incubation buffer as described below for the radioligand binding assays. The membrane protein concentrations were determined using the Pierce™ Coomassie (Bradford) Protein Assay Kit (Thermo Fisher Scientific, Waltham, USA), with bovine serum albumin (BSA) as the standard.\n(§3) Data from the saturation (K D), competition binding (K i), and kinetic experiments (koff/offobs) were fitted to a one- or two-site model, and the models were compared using an F test (extra sum-of-squares test)."}, "[5]": {"test_system": "5-HT1A receptor", "parameters": "method as in PMID 26660328", "conditions": "cited from earlier work"}, "[6]": {"target": "T1, human 5-HT7 receptor", "test": "Competition radioligand binding (orthosteric ligands ± Zn2+; Zn2+ titration curves)", "parameters": "The full-length human 5-HT7b receptor complementary DNA (cDNA)", "conditions": "read-out: IC50 for inhibiting radioligand binding", "protocol": "as §2, §3\nFor the competition binding assay, the affinity constant values (K i) were calculated using the Cheng–Prusoff equation (Eq. 2): […]"}, "[7]": {"test_system": "muscarinic M2 receptor", "parameters": "method as in PMID 17009927", "conditions": "cited from earlier work"}, "[8]": {"conditions": "cation at both concentrations, 500 μM and 5 mM"}}, "note": "Read-outs that look alike come from different tables or passages of the source.", "data": [{"smiles": "[Ca+2]", "note": "[Ca^2+]", "values": [{"measurement": "effect on the binding of the three tested radioligands", "setting": "[1]; cation 500 μM", "value": "did not alter"}, {"measurement": "decrease in radioligand binding relative to the control", "setting": "[1]", "value": "10 to 20", "unit": "%"}]}, {"smiles": "[K+]", "note": "[K^+]", "values": [{"measurement": "effect on the binding of the three tested radioligands", "setting": "[1]; [8]", "value": "did not alter"}]}, {"smiles": "CN1C[C@@H](NS(=O)(=O)N(C)C)C[C@@H]2c3cccc4c3c(cn4C)C[C@H]21", "note": "[Mesulergine, mesulergine]", "values": [{"measurement": "K B", "setting": "[2]; Zn2+ 0 μM", "value": "31.05 ± 7.51", "unit": "nM"}, {"measurement": "K B", "setting": "[2]; Zn2+ 0 μM, listed as mesulergine", "value": 31, "unit": "nM"}, {"measurement": "K B", "setting": "[2]; Zn2+ 10 μM", "value": "37.15 ± 6.86", "unit": "nM"}, {"measurement": "effect on constitutive (unstimulated cAMP) activity", "setting": "[2]", "value": "inverse agonistic properties"}]}, {"smiles": "[Mg+2]", "note": "[Mg^2+]", "values": [{"measurement": "effect on the binding of the three tested radioligands", "setting": "[1]; cation 500 μM", "value": "did not alter"}, {"measurement": "decrease in radioligand binding relative to the control", "setting": "[1]", "value": "10 to 20", "unit": "%"}]}, {"smiles": "[Na+]", "note": "[Na^+]", "values": [{"measurement": "effect on the binding of the three tested radioligands", "setting": "[1]; [8]", "value": "did not alter"}]}, {"smiles": "[Cl-].[Cl-].[Zn+2]", "note": "[Zn^2+, ZnCl2]", "values": [{"measurement": "effect on the level of [3H]SB-269970 binding", "setting": "[1]; cation 500 μM", "value": "did not influence"}, {"measurement": "reduction of [3H]5-CT binding", "setting": "[1]; cation 500 μM", "value": 67, "unit": "%"}, {"measurement": "reduction of [3H]mesulergine binding", "setting": "[1]; cation 500 μM", "value": 55, "unit": "%"}, {"measurement": "decrease in radioligand binding relative to the control", "setting": "[1]", "value": "up to 90%"}, {"measurement": "concentration not affecting the number of living cells", "setting": "[3]", "value": "≤ 200", "unit": "µM"}, {"measurement": "effect on constitutive (unstimulated cAMP) activity", "setting": "[2]", "value": "no influence"}, {"measurement": "functional profile", "setting": "[2]; zinc concentration up to 10 μM", "value": "weak neutral antagonist"}, {"measurement": "cooperativity factor α", "setting": "[4]; vs [3H]5-CT binding", "value": 0.15}, {"measurement": "cooperativity factor α", "setting": "[4]; vs [3H]SB-269970 binding", "value": 0.06}, {"measurement": "cooperativity factor α", "setting": "[4]; vs [3H]mesulergine binding", "value": 0.25}, {"measurement": "effect on agonist binding", "setting": "[5]; Zn2+ 10 μM", "value": "potentiation"}, {"measurement": "effect on agonist binding", "setting": "[5]; Zn2+ 500 μM", "value": "inhibition"}, {"measurement": "IC50", "setting": "[6]; vs [3H]5-CT at fixed concentration (≤K D)", "value": 346, "unit": "µM"}, {"measurement": "IC50", "setting": "[6]; vs [3H]SB-269970 at fixed concentration (≤K D)", "value": 1170, "unit": "µM"}, {"measurement": "IC50", "setting": "[6]; vs [3H]mesulergine at fixed concentration (≤K D)", "value": 241, "unit": "µM"}]}, {"smiles": "C=CC[N@@+]12CC[C@@]34c5ccccc5N5/C=C6/[C@H]7C[C@H]8[C@@]9(CC[N@@+]8(CC=C)C/C7=C/CO)c7ccccc7N(/C=C(/[C@@H](C[C@@H]31)/C(=C\\CO)C2)[C@H]54)[C@@H]69", "note": "[alcuronium]", "values": [{"measurement": "change in the affinity of acetylcholine (fold)", "setting": "[7]", "value": 10, "unit": "fold"}, {"measurement": "change in the affinity of arecoline (fold)", "setting": "[7]", "value": 1.7, "unit": "fold"}]}]}
